These results are taken from patent US8580764B2, “Combinational compositions and methods for treatment of cancer” (ArQule, Inc., priority 2010, dated 2013).

Read-outs that look alike come from different tables or passages of the source.

In assay [1] the test system is cancer cells. The settings on record: cited from earlier work.
For assay [2], the system named is cell cycle check point. Description: Activation of cell cycle check point during dosing regimen A (FIG. 9). It is filed as cell-based. The settings on record: dosing regimen A of FIG. 3. As for the experimental part: (§1) Cells were plated on day 0.
In assay [3] the test system is cancer cells. Description: Cell cycle analysis of dosing regimen A (FIG. 8). In kind it is cell-based. The settings on record: dosing regimen A of FIG. 3. As for the experimental part: as §1
The target of assay [4] is T1, c-Met (Homo sapiens, UniProt P08581).
T1 construct: Exposure of c-Met expressing cancer cell lines; endogenous in cells
Conditions: c-Met expressing cancer cell lines; cited from earlier work.

Assay [5] concerns human tumors. Conditions: multiple mouse xenograft efficacy studies; cited from earlier work.

T1 sequence (P08581 25-1390): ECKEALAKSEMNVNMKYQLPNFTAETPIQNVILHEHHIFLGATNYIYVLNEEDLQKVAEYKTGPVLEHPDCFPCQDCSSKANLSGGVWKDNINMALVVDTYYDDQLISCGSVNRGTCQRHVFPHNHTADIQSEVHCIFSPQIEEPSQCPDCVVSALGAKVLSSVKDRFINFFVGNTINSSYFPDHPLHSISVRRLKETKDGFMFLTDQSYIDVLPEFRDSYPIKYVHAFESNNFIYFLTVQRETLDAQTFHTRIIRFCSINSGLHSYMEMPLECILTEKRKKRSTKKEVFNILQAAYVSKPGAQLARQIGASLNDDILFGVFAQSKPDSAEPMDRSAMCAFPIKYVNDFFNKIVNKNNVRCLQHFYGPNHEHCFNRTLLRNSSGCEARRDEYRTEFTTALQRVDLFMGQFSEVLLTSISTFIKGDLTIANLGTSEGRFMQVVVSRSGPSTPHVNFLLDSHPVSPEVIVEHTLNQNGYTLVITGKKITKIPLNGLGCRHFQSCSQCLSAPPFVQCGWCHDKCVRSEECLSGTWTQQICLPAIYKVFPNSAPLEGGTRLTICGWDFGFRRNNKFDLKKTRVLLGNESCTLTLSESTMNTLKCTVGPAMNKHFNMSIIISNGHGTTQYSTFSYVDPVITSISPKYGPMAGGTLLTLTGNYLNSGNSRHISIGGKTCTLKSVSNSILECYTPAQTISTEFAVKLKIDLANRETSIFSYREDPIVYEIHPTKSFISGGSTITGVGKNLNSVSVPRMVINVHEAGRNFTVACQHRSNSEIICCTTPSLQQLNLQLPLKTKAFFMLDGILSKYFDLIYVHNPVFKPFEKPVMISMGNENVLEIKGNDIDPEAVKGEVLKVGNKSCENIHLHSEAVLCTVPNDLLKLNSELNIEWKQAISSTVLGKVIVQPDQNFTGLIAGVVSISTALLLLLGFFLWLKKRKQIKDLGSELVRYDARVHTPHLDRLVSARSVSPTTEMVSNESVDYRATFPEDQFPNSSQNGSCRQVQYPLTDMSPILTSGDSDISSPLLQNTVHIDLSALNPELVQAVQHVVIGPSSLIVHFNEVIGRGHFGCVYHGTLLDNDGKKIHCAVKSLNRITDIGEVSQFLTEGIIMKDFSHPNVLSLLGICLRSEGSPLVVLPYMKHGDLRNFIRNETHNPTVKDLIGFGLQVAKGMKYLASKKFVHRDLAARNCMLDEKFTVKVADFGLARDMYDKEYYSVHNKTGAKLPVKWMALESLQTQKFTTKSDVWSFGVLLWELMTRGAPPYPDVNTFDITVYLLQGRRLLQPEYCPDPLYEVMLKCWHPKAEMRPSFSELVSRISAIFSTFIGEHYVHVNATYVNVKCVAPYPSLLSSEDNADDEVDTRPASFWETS

Consider `Nc1ccn([C@@H]2O[C@H](CO)[C@@H](O)C2(F)F)c(=O)n1` [gemcitabine], for which the results for the cell cycle arrest entry in assay [1] and in assay [3] were “arrest cancer cells in G1/S phase” and “S-phase arrest”, respectively. In assay [2], the “activation of cell cycle check point” value was “activation of cell cycle check point”.

Take `O=C1NC(=O)[C@@H](c2cn3c4c(cccc24)CCC3)[C@@H]1c1c[nH]c2ccccc12` [Agent A, (−)-trans-3-(5,6-dihydro-4H-pyrrolo[3,2,1-ij]quinolin-1-yl)-4-(1H-indol-3-yl)pyrrolidine-2,5-dione]: the “phospho-c-Met levels and cell death” value in assay [4] is “decrease in phospho-c-Met levels with eventual apoptotic cell death”. Besides, the “growth of human tumors” value in assay [5] is reported as “inhibited the growth of human tumors”. Further, the cell cycle arrest entry in assay [3] is recorded as “G2/M arrest”.
